Measurements taken from patent US20250312369A1, “ANTI-AGING AND ANTI-INFLAMMATORY COMPOSITIONS COMPRISING NICOTINAMIDE MONONUCLEOTIDE AND RESVERATROL AND USES THEREOF” (WONDERFEEL, priority 2022, published 2025).

Experiments:
[1] = prediabetic women, clinical trial 2021; cited from earlier work
[2] = test system: human lung epithelial cell line (A549); assay: LDH release after hydrogen peroxide and hypoxic injury in A549 cells; assay type: cell-based; conditions: 100 micromolar H2O2, 18 hours at 37° C., 95% nitrogen and 5% carbon dioxide, treatment agents 10 micromolar in the media
Protocol: In order to model cytoprotective effects of the invention, a reductionist in vitro model was employed wherein a human lung epithelial cell line (A549) was exposed to severe oxidant and hypoxic stress. Cultured A549 cells were placed in 96 well plates, incubated in Dulbecco's Modified Eagle's Medium (DMEM), and allowed to grow to confluence over 72 hours. Cellular injury was created by the addition into the media of 100 micromolar hydrogen peroxide (H2O2), followed by incubation at 37° C. for 18 hours in an atmosphere of 95% nitrogen and 5% carbon dioxide, which maintained a pH in the incubation media of 7.4. Three experimental arms were evaluated, using quadruplicate replicates, as follows: a) media control, b) NMN, and c) NMN plus resveratrol and hydroxytyrosol. A control arm was examined that was not exposed to hydrogen peroxide. The treatment agents were added such that their final concentration in the media was 10 micromolar. lactate dehydrogenase (LDH) was assayed in the media after 18 hours using a commercial kit, based upon a colorimetric change quantified by visible spectrophotometry.

[3] = animals and humans, even at high doses; cited from earlier work
sirtuin-1 = conditions: 500 mg/day, healthy and slightly overweight subjects; cited from earlier work

Compound: NC(=O)c1ccc[n+]([C@@H]2O[C@H](COP(=O)([O-])O)[C@@H](O)[C@H]2O)c1 [NMN, 3-carbamoyl-1-[5-O-(hydroxyphosphinato)-β-D-ribofuranosyl] pyridinium]
- muscular insulin sensitivity [1]: improve muscular insulin sensitivity
- reduction in the elevation in LDH release produced by addition of hydrogen peroxide alone [2]: 14%

Compound: C[N+](C)(C)[C@@H](Cc1c[nH]c(=S)[nH]1)C(=O)[O-] [ergothioneine, (2S)-3-(2-sulfanylidene-2,3-dihydro-1H-imidazol-4-yl)-2-(trimethylazaniumyl)propanoate]
- toxicity or adverse effects associated with administration [3]: no toxicity or adverse effects

Compound: Oc1ccc(/C=C/c2cc(O)cc(O)c2)cc1 [resveratrol, 3,4′,5-trihydroxy-trans-stilbene]
- gene expression and serum concentration of sirtuin-1 (sirtuin-1): higher gene expression and serum concentration of sirtuin-1
